{"source": "patent US20110028453A1", "about": "“Treating Negative Symptoms of Schizophrenia Associated with Defective Neuregulin 1” (priority 2009, published 2011)", "key": {"[1]": {"system": "wild-type and NRG1+/- mice", "test": "Forced swimming test", "assay_type": "in vivo, mouse", "details": "for effect on immobility time: i.p., desipramine 20, imipramine 15, venlafaxine 15 mg/kg; for immobility period: desipramine 20 mg/kg i.p.", "excerpt": "(§1) Transmembrane (TM)-domain NRG1 heterozygous mutant mice (129S5-Nrg1tm1Lex, ID#011745-UCD) were obtained from Mutant Mouse Regional Resource Centers (MMRRC) and backcrossed with B6 mice. NRG1^+/− mice and their wild-type littermates were generated by in-house mating of male NRG1^+/− mice and female C57BL/6 mice. Heterozygous crossing has been practiced for at least 7 generations to obtain animals with a homogeneous C57BL/6 genetic background except for the TM-mutated nrg1 gene locus. Mouse genotypes were determined by PCR analysis. Animals were housed (five per cage) under a 12-hr light/dark cycle (lights on from 8:00 a.m. to 8:00 p.m.) at constant room temperature and relative humidity with food and water available ad libitum. All experiments were started at 10-week-old period at weight of 25-30 g.\n(§2) Before undergoing any behavioral test, animals were handled by an investigator for at least 3 days so that they became familiar with the investigator. The animals had been placed under laboratory conditions for at least 1 hr before each behavioral test.\nTo perform the forced swimming test, each mouse, administered via intraperitoneal injection with either one of the above-listed serotonin transporter inhibitors or saline 30-60 minutes ago, was placed individually in a clear glass cylinder (height, 25 cm; diameter, 15 cm) containing water (depth: 15 cm; temperature: 26±1° C.). Its behavior was recorded by a video camera during a 6-min testing period. The duration of immobility was measured during the last 4 min after a 2-min habituation period."}, "[2]": {"system": "wild-type and NRG1+/- mice", "test": "Social withdrawal behavior evaluation", "assay_type": "in vivo, mouse", "set-up": "key to social approach change score: score: +1/s social side, 0 center, -1 nonsocial; presence minus absence", "details": "i.p. 30 min before testing; for social approach change score: NRG1+/- mice; for social approach change score, effect: wild-type mice, same doses", "excerpt": "as §1, §2\nThe social withdrawal behavior evaluation study was performed following the method described in Sankoorikal et al., Biol. Psychiatry 59:415-423, 2006 with modifications. Briefly, this study was carried out in a behavioral testing apparatus containing two end chambers and one middle chamber. A clear Plexiglas cylinder was placed in each of the two end chambers, one being designated as “social side” (where stimulus to mice was introduced through the cylinder) and the other being designated as the “nonsocial side.” (where the cylinder is empty). Multiple holes (0.5 in diameter each) are evenly spaced over the surface of the two cylinders.\nEach of the mice to be tested was housed individually for 3 days before the social withdrawal behavior evaluation study was performed. During the study, the response (i.e., social approach) of a test mouse to a novel (unfamiliar) “stimulus” was observed within 5 minutes after the mouse was exposed to the stimulus. A “social approach score” was calculated for each mouse according to the time it spent in each of the three chambers as follows: +1 for each second spent in the social side chamber, 0 for each second spent in the center chamber, and −1 for each second spent in the nonsocial side chamber. The “social approach change score” was calculated by subtracting the value of “social approach score in the absence of stimulus mouse” condition from the value for “presence of stimulus mouse” condition."}, "NRG1": {"system": "NRG1", "test": "Western blot of NRG1 level in treated A172 cells", "assay_type": "cell-based, human", "procedure": "(§3) A172 cells were cultured in DMEM supplemented with 10% heat-inactivated fetal bovine serum (FBS; Hyclone, Logan, Utah), 100 U/mL penicillin and 0.1 mg/mL streptomycin (Invitrogen, Carlsbad, Calif.) at 37° C. in a humidified incubator with 5% CO2 and 95% air.\n(§4) The cells were lysed and the lysates were suspended in a RIPA buffer (50 mM HEPES (pH 7.4), 4 mM EDTA, 150 mM NaCl, 10 mM Na4P2O7, 100 mM NaF, 2 mM Na3VO4, 1% Triton X-100, 0.25% sodium deoxycholate, 50 mM 4-(2-aminoethyl) benzene sulfonylfluoride, 50 μg/mL leupeptin, and 20 μg/mL aprotinin). For each cell sample, 30˜50 μg of total protein, along with a molecular weight ladder were resolved on 8% a bis-tris polyacrylamide NuPAGE gels (90˜130 V, 2 hrs) via electrophoresis and then transferred onto a nitrocellulose membrane (Invitrogen) (550 mA, 90 min) The membrane was first blocked using phosphate buffered saline (PBS) with 5% dry skimmed milk powder for 1 hr at room temperature and then incubated at 4° C. in the presence of mouse anti-serotonin transporter antibody (MAB1564; Chemicon), rabbit anti-norepinephrine transporter antibody (AB2234; Millipore, Bedford, Mass.), or anti-β-actin antibody (MAB1501, Chemicon) overnight. The antibody was diluted in phosphate buffered saline containing 0.1% Tween-20 (PBST). Afterwards, the membrane was washed with PBST and then incubated with a peroxidase-conjugated secondary antibody in PBST. After being washed for several times, the membrane was subjected to the enhanced chemiluminescence (ECL) analysis, following the method described in Yeh et al., 2009, Glia, 57:454-464, using an ECL kit purchased from Santa Cruz Biotechnology and Kodak X-OMAT LS film (Eastman Kodak, Rochester, N.Y.).\n(§5) A172 cells were cultured in the presence of serotonin at a concentration of 1, 3, 10, 30, or 100 μM. The levels of both NGR1 and ErbB4, the major receptor of NRG1 in the brain, in the treated A172 cells were examined by Western blot as described above at various time points (e.g., 2 hr, 4 hr, 8 hr, 12 hr, and 24 hr post treatment), using rabbit anti-NRG1 precursor antibody no. […]"}, "ErbB4": {"system": "ErbB4", "test": "Western blot of ErbB4 level in treated A172 cells", "assay_type": "cell-based, human", "procedure": "as §3, §4, §5"}, "[3]": {"details": "NRG1+/- mice, much greater than in wild-type"}, "[4]": {"details": "male (FIG. 2 panel A), desipramine 20, imipramine 15, fluvoxamine 15, venlafaxine 15, duloxetine 20, escitalopram 30 mg/kg, saline −37.7±28.8"}, "[5]": {"details": "female, duloxetine 20, escitalopram 30 mg/kg, saline −60.4±40.2"}}, "data": [{"smiles": "CN(C)CCCN1c2ccccc2CCc2ccccc21", "note": "[imipramine]", "values": [{"measurement": "effect on immobility time", "setting": "[1]; [3]", "value": "decreased"}, {"measurement": "effect on immobility time", "setting": "[1]; wild-type mice", "value": "only slightly affected"}, {"measurement": "social approach change score", "setting": "[2]; [4]", "value": "138.7±18.8"}, {"measurement": "social approach change score, effect", "setting": "[2]", "value": "not significantly different"}]}, {"smiles": "CNCCCN1c2ccccc2CCc2ccccc21", "note": "[desipramine]", "values": [{"measurement": "immobility", "setting": "[1]; C57BL/6 wild-type mice, desipramine 50 mg/kg, saline 101.4±16.4 sec", "value": "58.6 ± 11.0", "unit": "s"}, {"measurement": "immobility period", "setting": "[1]; NRG1+/- mice, control NRG1+/- = 122.8%, p<0.01", "value": "36.5±18.0", "unit": "%"}, {"measurement": "effect on immobility time", "setting": "[1]; [3]", "value": "decreased"}, {"measurement": "immobility period", "setting": "[1]; wild-type mice, control wild-type = 100.0%, p=0.24", "value": "65.7±24.5", "unit": "%"}, {"measurement": "effect on immobility time", "setting": "[1]; wild-type mice", "value": "only slightly affected"}, {"measurement": "social approach change score", "setting": "[2]; [4]", "value": "122.7±31.0"}, {"measurement": "social approach change score, effect", "setting": "[2]", "value": "not significantly different"}]}, {"smiles": "COCCCC/C(=N\\OCCN)c1ccc(C(F)(F)F)cc1", "note": "[fluvoxamine]", "values": [{"measurement": "social approach change score", "setting": "[2]; [4]", "value": "98.6±15.9"}, {"measurement": "social approach change score, effect", "setting": "[2]", "value": "not significantly different"}]}, {"smiles": "COc1ccc(C(CN(C)C)C2(O)CCCCC2)cc1", "note": "(centres unmarked) [venlafaxine]", "values": [{"measurement": "effect on immobility time", "setting": "[1]; [3]", "value": "decreased"}, {"measurement": "effect on immobility time", "setting": "[1]; wild-type mice", "value": "only slightly affected"}, {"measurement": "social approach change score", "setting": "[2]; [4]", "value": "61.9±24.7"}, {"measurement": "social approach change score, effect", "setting": "[2]", "value": "not significantly different"}]}, {"smiles": "CNCC[C@H](Oc1cccc2ccccc12)c1cccs1", "note": "[duloxetine]", "values": [{"measurement": "social approach change score", "setting": "[2]; [5]", "value": "103.7±30.8"}, {"measurement": "social approach change score", "setting": "[2]; [4]", "value": "78.7±28.5"}, {"measurement": "social approach change score, effect", "setting": "[2]", "value": "not significantly different"}]}, {"smiles": "NCCc1c[nH]c2ccc(O)cc12", "note": "[serotonin]", "values": [{"measurement": "level of NRG1 compared to saline control", "setting": "NRG1; serotonin 10 μM, p<0.05", "value": "1.4±0.06", "unit": "fold"}, {"measurement": "level of ErbB4 compared to saline control", "setting": "ErbB4; serotonin 10 μM, p<0.05", "value": "1.7±0.1", "unit": "fold"}]}, {"smiles": "CN(C)CCC[C@@]1(c2ccc(F)cc2)OCc2cc(C#N)ccc21", "note": "[escitalopram]", "values": [{"measurement": "social approach change score", "setting": "[2]; [5]", "value": "110.1±41.9"}, {"measurement": "social approach change score", "setting": "[2]; [4]", "value": "175.3±60.4"}, {"measurement": "social approach change score, effect", "setting": "[2]", "value": "not significantly different"}]}, {"smiles": "COc1cc(CC(C)N)c(OC)cc1I", "note": "(centres unmarked) [DOI]", "values": [{"measurement": "effect on level of NRG1", "setting": "NRG1; 0.1-3 μM, 4 hours", "value": "did not show increased levels"}, {"measurement": "effect on level of ErbB4", "setting": "ErbB4; 0.1-3 μM, 4 hours", "value": "did not show increased levels"}]}, {"smiles": "CCCN(CCC)C1CCc2cccc(O)c2C1", "note": "(centres unmarked) [8-OH DPAT, 8-hydroxy-N,N-dipropyl-2-aminotetralin]", "values": [{"measurement": "level of NRG1 compared with untreated A172 cells (maximal effect)", "setting": "NRG1; 0.3 μM, 4 hours", "value": "1.44±0.12", "unit": "fold"}, {"measurement": "level of ErbB4 compared with untreated A172 cells (maximal effect)", "setting": "ErbB4; 0.3 μM, 4 hours", "value": "1.44±0.10", "unit": "fold"}]}]}
